Where two headings read alike, the source gives them in different places.
How the values were obtained:
[1] = cited from earlier work
[2] = system: subjects with strictures and/or rings and EoE; assay: Clinical trial of FP ODT: endoscopy (EREFS, strictures, rings); assay type: in vivo, human; conditions: for Stricture and Grade 2 Rings at Week 12, % / Stricture at Week 12, % / Stricture or Grade 2 Rings at Week 12, % / Subjects with new strictures and/or rings at Week 12, % / Endoscopy Responder Rate (overall EFEFS score ≤4), %: subgroup with strictures and/or Grade 2 rings at baseline; for Endoscopy Responder Rate (overall EFEFS score ≤4), %: Week 12
Source text: In some embodiments, the strictures and/or rings are diagnosed using EoE Endoscopic Reference Score (EREFS), which measures edema (e.g., decreased vascularity or pallot), rings present, exudates (e.g., white plaques), furrows, and/or stricture in the esophagus according to Table 1. In embodiments, the patient also has a grade 2 or grade 3 ring.
In some embodiments, the methods of the present disclosure cause an improvement in a patient's EoE Endoscopic Reference score (EREFS). The EREFS identifies the severity of five endoscopic findings: edema, rings, exudates, furrows, and strictures. The EREFS classification system rates the severity of each of the endoscopic findings. The severity of edema is rated on a scale from 0 to 2. The severity of rings is rated from 0 to 3. The severity of exudates is rated from 0 to 2. The severity of furrows is rated from 0 to 2. The severity of strictures is rated from 0 to 1. The absence of a finding corresponds to a score of 0. The presence of a finding corresponds to a score of 1, 2, or 3. A higher score is correlated with higher severity. In some embodiments, the composite EREFS score, or the sum of the individual scores, is utilized to indicate the severity of EoE. In some embodiments, the inflammatory EREFS score, or the sum of the individual edeme, exudate, and furrows score, is utilized to indicate the severity of EoE. In some embodiments, a higher inflammatory or composite EREFS score corresponds to the severity of EoE. In some embodiments, the inflammatory or composite EREFS score decreases after treatment with a corticosteroid according to the methods of the disclosure. In some embodiments the inflammatory or composite EREFS score decreases by 0.1, or about 0.2, or about 0.3, or about 0.4, or about 0.5, or about 0.6, or about 0.7, or about 0.8, or about 0.9, or about 1.0, or about 1.1, or about 1.2, or about 1.3, or about 1.4, or about 1.5, or about 1.6, or about 1.7, or about 1.8, or about 1.9, or about 2.0, or about 2.1, or about 2.2, or about 2.3, or about 2.4, or about 2.5, or about 2.6, or about 2.7, or about 2.8, or about 2.9, or about 3.0, or about 3.1, or about 3.2, or about 3.3, or about 3.4, or about 3.5, or about 3.6, or about 3.7, or about 3.8, or about 3.9, or about 4.0, or about 4.1, or about 4.2, or about 4.3, or about 4.4, or about 4.5, or about 4.6, or about 4.7, or about 4.8, or about 4.9, or about 5.0, or about 5.1, or about 5.2, or about 5.3, or about 5.4, or about 5.5, or about 5.6, or about 5.7, or about 5.8, or about 5.9, or about 6.0, or about 6.1, or about 6.2, or about 6.3, or about 6.4, or about 6.5, or about 6.6, or about 6.7, or about 6.8, or about 6.9, or about 7.0, or about 7.1, or about 7.2, or about 7.3, or about 7.4, or about 7.5, or about 7.6, or about 7.7, or about 7.8, or about 7.9, or about 8.0, or about 8.1, or about 8.2, or about 8.3, or about 8.4, or about 8.5, or about 8.6, or about 8.7, or about 8.8, or about 8.9, or about 9.0, or about 9.1, or about 9.2, or about 9.3, or about 9.4, or about 9.5, or about 9.6, or about 9.7, or about 9.8, or about 9.9, or about 10.0 points, or more, inclusive of all ranges between these values. In some embodiments, the EREFS score decreases by 1%, or 5%, or 10%, or 15%, or 20%, or 25%, or 30%, or 35%, or 40%, or 45%, or 50%, or 55%, or 60%, or 65%, or 70%, or 75%, or 80%, or 85%, or 90%, or 95% or more, inclusive of all ranges between these values. The following article, incorporated by reference in its entirety herein, describes the EREFS score: Wechsler, Clin Hepatol. 2018 July; 16(7): 1056-1063.
A clinical trial was performed to evaluate the effect of an orally disintegrating tablet (“ODT”) comprising fluticasone propionate (FP). A randomised, double-blind, placebo-controlled, multicentre, dose-ranging, and maintenance study of FP in subjects (>18 and <75 years of age) with strictures and/or rings and EoE. […]

[3] = all FP dosing groups, TOTAL (n = 43)

S-(fluoromethyl)-6α,9-difluoro-11β, 17-dihydroxy-16α-methyl-3-oxoandrosta-1, 4-diene-17β-carbothioate, 17-propanoate [FP]
Solubility ([1]; acetone, dichloromethane, ethyl acetate and chloroform): sparingly soluble
Solubility ([1]; dimethyl sulfoxide and dimethylformamide): freely soluble
Solubility ([1]; methanol and 95% ethanol): slightly soluble
Solubility ([1]; water): practically insoluble
Stricture and Grade 2 Rings at Week 12, % ([2]; FP 1.5 mg BID (n = 12)): 0%
Stricture at Week 12, % ([2]; FP 1.5 mg BID (n = 12)): 42%
Stricture or Grade 2 Rings at Week 12, % ([2]; FP 1.5 mg BID (n = 12)): 50%
Subjects with new strictures and/or rings at Week 12, % ([2]; FP 1.5 mg BID (n = 12)): 0%
Endoscopy Responder Rate (overall EFEFS score ≤4), % ([2]; FP 1.5 mg BID (n = 12)): 92%
Stricture and Grade 2 Rings at Week 12, % ([2]; FP 1.5 mg HS (n = 13)): 0%
Stricture at Week 12, % ([2]; FP 1.5 mg HS (n = 13)): 8%
Stricture or Grade 2 Rings at Week 12, % ([2]; FP 1.5 mg HS (n = 13)): 15%
Subjects with new strictures and/or rings at Week 12, % ([2]; FP 1.5 mg HS (n = 13)): 0%
Endoscopy Responder Rate (overall EFEFS score ≤4), % ([2]; FP 1.5 mg HS (n = 13)): 77%
Stricture and Grade 2 Rings at Week 12, % ([2]; FP 3 mg BID (n = 7)): 0%
Stricture at Week 12, % ([2]; FP 3 mg BID (n = 7)): 29%
Stricture or Grade 2 Rings at Week 12, % ([2]; FP 3 mg BID (n = 7)): 29%
Subjects with new strictures and/or rings at Week 12, % ([2]; FP 3 mg BID (n = 7)): 0%
Endoscopy Responder Rate (overall EFEFS score ≤4), % ([2]; FP 3 mg BID (n = 7)): 86%
Stricture and Grade 2 Rings at Week 12, % ([2]; FP 3 mg HS (n = 11)): 0%
Stricture at Week 12, % ([2]; FP 3 mg HS (n = 11)): 9%
Stricture or Grade 2 Rings at Week 12, % ([2]; FP 3 mg HS (n = 11)): 18%
Subjects with new strictures and/or rings at Week 12, % ([2]; FP 3 mg HS (n = 11)): 0%
Endoscopy Responder Rate (overall EFEFS score ≤4), % ([2]; FP 3 mg HS (n = 11)): 100%
Stricture and Grade 2 Rings at Week 12, % [2, 3]: 0%
Stricture at Week 12, % [2, 3]: 21%
Stricture or Grade 2 Rings at Week 12, % [2, 3]: 28%
Subjects with new strictures and/or rings at Week 12, % [2, 3]: 0%
Endoscopy Responder Rate (overall EFEFS score ≤4), % [2, 3]: 88%
Grade 2 Rings at Week 12, % ([2]; all FP dosing groups, subjects with stricture/rings at baseline): 7%
Effect on strictures and/or grade 2 esophageal rings (post-hoc analysis) ([2]; patients with strictures and/or grade 2 esophageal rings at baseline, particularly the 3-mg HS dosing group): improvement or resolution of these features in most patients
